biological target: T1, Cloned Human Dopamine D3 Receptors (Homo sapiens, UniProt P35462); assay: [N-Methyl-3H]Spiroperidol binding to cloned human dopamine D3 receptors; details: D3 Ki (nM)
T1 construct: expressed in transfected cells; membrane homogenate
How it was run: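 [N-methyl-3H]spiroperidol binding is run in Tris buffer, pH 7.7. Receptor source is membranes of a stably transfected, high-expressing CHO clone carrying the human D3 gene, kept at -80°C in 10% DMSO.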

T1 sequence (P35462 whole entry): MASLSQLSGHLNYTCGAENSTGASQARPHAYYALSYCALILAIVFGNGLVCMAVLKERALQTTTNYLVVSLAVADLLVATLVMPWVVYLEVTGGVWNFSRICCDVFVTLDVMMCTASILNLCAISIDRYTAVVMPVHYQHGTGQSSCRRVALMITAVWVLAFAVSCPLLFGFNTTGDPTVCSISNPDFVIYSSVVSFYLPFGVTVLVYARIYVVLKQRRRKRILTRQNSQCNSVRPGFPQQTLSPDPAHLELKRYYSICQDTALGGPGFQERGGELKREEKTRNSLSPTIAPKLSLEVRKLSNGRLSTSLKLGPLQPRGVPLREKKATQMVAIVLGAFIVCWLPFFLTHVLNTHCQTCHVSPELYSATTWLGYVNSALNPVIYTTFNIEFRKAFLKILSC

| SMILES | Ki [nM] |
| --- | --- |
| CN1CCCC1CCNC(=O)[C@H]1C[C@@H]1CN1CCC(c2noc3ccsc23)CC1 (single isomer, unassigned) [compound 832514] | 115 |

same assay, conditions: Table 2; unit inferred; read-out: d3Ki

| Ki [nM] | SMILES |
| --- | --- |
| 78.6 | CN(C(=O)CCCN1CCN(c2csc3cc(F)ccc23)CC1CCCc1ccccc1)C1CCCCC1 (stereo not shown) [compound 827109] |
| 2.86 | O=C(N[C@H]1CC[C@H](C(=O)N2CCCC2)CC1)[C@@H]1C[C@H]1CN1CCN(c2csc3cc(C(F)(F)F)ccc23)CC1 [compound 817047] |
| 34.2 | C[C@H]1CC[C@H](NC(=O)CCCN2CCCN(c3csc4cc(F)ccc34)CC2)CC1 [compound 826824] |
| 126 | CN(C(=O)CCCN1CCN(c2csc3cc(C(F)(F)F)ccc23)CC1CCCc1ccccc1)C1CCCCC1 (stereo not shown) [compound 827079] |
| 5.38 | C[C@H]1CC[C@H](NC(=O)[C@@H]2C[C@H]2CN2CCN(c3csc4cc(C(F)(F)F)ccc34)CC2)CC1 [817569A] |
| 2.15 | C[C@]1(O)CC[C@H](NC(=O)[C@@H]2C[C@H]2CN2CCN(c3csc4cc(C(F)(F)F)ccc34)CC2)CC1 [compound 817050] |
| 117 | C[C@H]1CC[C@H](NC(=O)CCCN2CCN(c3csc4cc(F)ccc34)CC2CCCc2ccccc2)CC1 (stereo partly shown) [compound 827105] |
| 21.2 | CN(C(=O)CCCCN1CCN(c2csc3cc(F)ccc23)CC1)c1ccccc1F [compound 822139] |
| 267 | CN(C(=O)CCCN1CCN(c2csc3cc(C(F)(F)F)ccc23)CC1CCc1ccccc1)C1CCCCC1 (stereo not shown) [compound 827074] |
| 11.5 | CCC1CCC(NC(=O)C2CC2CN2CCN(c3ccc(C)cc3C)CC2)CC1 (stereo not shown) [817571A] |
| 2.35 | CC1CCC(NC(=O)C2CC2CN2CCN(c3ccc(F)cc3)CC2)CC1 (stereo not shown) [compound 827196] |

same assay, conditions: Table 2 part the 10th table; read-out: d3Ki

| Ki [nM] | SMILES |
| --- | --- |
| 101 | O=C([C@@H]1C[C@H]1CN1CCN(c2csc3cc(C(F)(F)F)ccc23)CC1)N1CCC(O)C1 (stereo partly shown) [compound 826914] |
| 51.5 | O=C(CCCN1CCN(c2csc3cc(F)ccc23)CC1Cc1ccccc1)N1CCC(N2CCCC2)CC1 (stereo not shown) [compound 827097] |
| 2.55 | CCOC(=O)C1CCN(C(=O)CCCN2CCCN(c3csc4cc(F)ccc34)CC2)CC1 [compound 826831] |
| 7.06 | CCN(CC)C(=O)C1CCCN(C(=O)[C@@H]2C[C@H]2CN2CCN(c3csc4cc(C(F)(F)F)ccc34)CC2)C1 (stereo partly shown) [compound 826908] |
| 86.1 | CC1CC(C)CN(C(=O)[C@@H]2C[C@H]2CN2CCN(c3csc4cc(C(F)(F)F)ccc34)CC2)C1 (stereo partly shown) [compound 826913] |
| 37.8 | CC1CCN(C(=O)CCCN2CCN(c3csc4cc(F)ccc34)CC2Cc2ccccc2)CC1 (stereo not shown) [compound 827095] |
| 2 | O=C([C@@H]1C[C@H]1CN1CCN(c2csc3cc(F)ccc23)CC1)N1CCCCC1 [compound 826676] |
| 2.72 | O=C([C@@H]1C[C@H]1CN1CCCN(c2csc3cc(F)ccc23)CC1)N1CCC(N2CCCC2)CC1 [compound 826876] |
| 6.8 | CCOC(=O)C1CN(C(=O)[C@@H]2C[C@H]2CN2CCN(c3csc4cc(F)ccc34)CC2)CCC1=O (stereo partly shown) [compound 826671] |

same assay, conditions: read-out: D3 Ki

| Ki [nM] | SMILES |
| --- | --- |
| 15.5 | O=C(NCCCN1CCOCC1)[C@@H]1C[C@H]1CN1CCC(c2noc3ccsc23)CC1 [compound 831046] |

same assay, conditions: read-out: d3Ki

| Ki [nM] | SMILES |
| --- | --- |
| 11 | O=C(N[C@H]1CC[C@H](O)CC1)[C@@H]1C[C@H]1CN1CCN(c2csc3cc(C(F)(F)F)ccc23)CC1 [compound 816592] |
| 100 | O=C(NCc1ccc(C(F)(F)F)cc1)[C@@H]1CCCC[C@@H]1CN1CCN(c2csc3cc(C(F)(F)F)ccc23)CC1 [compound 826108] |
| 2.16 | C[C@H]1CC[C@H](NC(=O)[C@@H]2C[C@H]2CN2CCCN(c3csc4cc(F)ccc34)CC2)CC1 [compound 826864] |
| 12.4 | C[C@H]1CC[C@H](NC(=O)[C@@H]2C[C@H]2CN2CCN(c3ccc(Cl)cc3)CC2)CC1 [compound 827178] |
| 197 | CC[C@H]1CC[C@H](NC(=O)[C@@H]2C[C@H]2CN2CCN(c3ccc([N+](=O)[O-])cc3)CC2)CC1 [compound 827244] |
| 2.86 | O=C(NC1CCCC1)[C@@H]1C[C@H]1CN1CCCN(c2csc3cc(F)ccc23)CC1 [compound 826880] |

From patent EP1935887A1, “Heterocyclic substituted carbonyl derivatives and their use as dopamine D3 receptor ligands” (Aventis Pharmaceuticals Inc., priority 2001, dated 2002)
